± gives the expanded uncertainty stated by the source.
Columns and labels:
[1] = Liquid; for thermal conductivity: 101.33 kPa, Hot wire method; for viscosity / mass density: 101 kPa; for viscosity: Capillary tube (Ostwald / Ubbelohde) method; for mass density: Pycnometric method
[2] = wn = mass fraction of the nth substance listed; settings: 101 kPa, Liquid; for viscosity: Capillary tube (Ostwald / Ubbelohde) method; for mass density: Pycnometric method; for thermal conductivity: Hot wire method

`CCCCOCC` [butyl ethyl ether] showed a thermal conductivity ([1]; 298.15 K) of 0.1258 ± 0.0051 W/m/K, a viscosity ([1]; 298.2 K) of 0.3868 ± 0.0049 mPa·s and a mass density ([1]; 298.2 K) of 743 ± 0.9 kg/m3. It also gave a thermal conductivity ([1]; 299.62 K) of 0.125 ± 0.0051 W/m/K, a thermal conductivity ([1]; 312.17 K) of 0.1229 ± 0.005 W/m/K and a thermal conductivity ([1]; 333.39 K) of 0.1017 ± 0.0041 W/m/K. For the same molecule, the thermal conductivity ([1]; 354.63 K) was 0.0949 ± 0.0038 W/m/K.
Molecule `CO` [methanol] + CCOC(F)(F)C(F)(F)C(F)(F)C(F)(F)F has a viscosity ([2]; 297.8 K, w1 = 1) of 0.5463 ± 0.004 mPa·s and a mass density ([2]; 297.8 K, w1 = 1) of 791.8 ± 0.7 kg/m3.
Work on `CCOC(F)(F)C(F)(F)C(F)(F)C(F)(F)F` [1-ethoxy-1,1,2,2,3,3,4,4,4-nonafluorobutane] yielded a thermal conductivity ([1]; 278.8 K) of 0.0712 ± 0.0029 W/m/K, a viscosity ([1]; 297.8 K) of 0.6065 ± 0.0053 mPa·s and a mass density ([1]; 297.8 K) of 1417 ± 1.4 kg/m3. The viscosity ([1]; 298.2 K) was 0.6065 ± 0.0053 mPa·s, the mass density ([1]; 298.2 K) was 1417 ± 1.4 kg/m3 and the thermal conductivity ([1]; 298.2 K) was 0.0662 ± 0.0027 W/m/K. It also gave a thermal conductivity ([1]; 300.6 K) of 0.0644 ± 0.0026 W/m/K, a thermal conductivity ([1]; 314.1 K) of 0.0616 ± 0.0025 W/m/K and a thermal conductivity ([1]; 328.3 K) of 0.059 ± 0.0024 W/m/K. The thermal conductivity ([1]; 344.1 K) was 0.0563 ± 0.0023 W/m/K.
With `CO` [methanol] the viscosity ([1]; 297.8 K) was 0.5463 ± 0.004 mPa·s and the mass density ([1]; 297.8 K) was 791.8 ± 0.7 kg/m3.
In the case of `CCOC(F)(F)C(F)(F)C(F)(F)C(F)(F)F` [1-ethoxy-1,1,2,2,3,3,4,4,4-nonafluorobutane] + CCCCOCC, the viscosity ([2]; 298.2 K, w2 = 0) is reported as 0.6065 ± 0.0053 mPa·s, the viscosity ([2]; 298.2 K, w2 = 0.1) is reported as 0.5458 ± 0.005 mPa·s and the viscosity ([2]; 298.2 K, w2 = 0.2) is reported as 0.5042 ± 0.0048 mPa·s. It also gave a viscosity ([2]; 298.2 K, w2 = 0.4) of 0.4379 ± 0.0045 mPa·s, a viscosity ([2]; 298.2 K, w2 = 0.6) of 0.4077 ± 0.0045 mPa·s and a viscosity ([2]; 298.2 K, w2 = 0.8) of 0.397 ± 0.0047 mPa·s. The thermal conductivity ([2]; 298.2 K, w2 = 0) was 0.0662 ± 0.0027 W/m/K, the thermal conductivity ([2]; 298.2 K, w2 = 0.1) was 0.0664 ± 0.0027 W/m/K and the thermal conductivity ([2]; 298.2 K, w2 = 0.2) was 0.0707 ± 0.0029 W/m/K. For the same molecule, the thermal conductivity ([2]; 298.2 K, w2 = 0.4) was 0.0774 ± 0.0031 W/m/K, the thermal conductivity ([2]; 298.2 K, w2 = 0.6) was 0.0921 ± 0.0037 W/m/K and the thermal conductivity ([2]; 298.2 K, w2 = 0.8) was 0.1085 ± 0.0044 W/m/K. For the same molecule, the mass density ([2]; 298.2 K, w2 = 0) was 1417 ± 1.4 kg/m3, the mass density ([2]; 298.2 K, w2 = 0.1) was 1293.4 ± 1.3 kg/m3 and the mass density ([2]; 298.2 K, w2 = 0.2) was 1187.4 ± 1.2 kg/m3. The mass density ([2]; 298.2 K, w2 = 0.4) was 1024.9 ± 1.1 kg/m3, the mass density ([2]; 298.2 K, w2 = 0.6) was 907.4 ± 1 kg/m3 and the mass density ([2]; 298.2 K, w2 = 0.8) was 813.7 ± 0.9 kg/m3.
`CCCCOCC` [butyl ethyl ether] + CCOC(F)(F)C(F)(F)C(F)(F)C(F)(F)F gave a viscosity ([2]; 298.2 K, w1 = 1) of 0.3868 ± 0.0049 mPa·s, a thermal conductivity ([2]; 298.2 K, w1 = 1) of 0.1258 ± 0.0051 W/m/K and a mass density ([2]; 298.2 K, w1 = 1) of 743 ± 0.9 kg/m3.
Molecule `CCOC(F)(F)C(F)(F)C(F)(F)C(F)(F)F` [1-ethoxy-1,1,2,2,3,3,4,4,4-nonafluorobutane] + CO has a viscosity ([2]; 297.8 K, w2 = 0) of 0.6065 ± 0.0053 mPa·s, a viscosity ([2]; 297.8 K, w2 = 0.1) of 0.6034 ± 0.0052 mPa·s and a viscosity ([2]; 297.8 K, w2 = 0.2) of 0.6802 ± 0.0056 mPa·s. The viscosity ([2]; 297.8 K, w2 = 0.4) was 0.6089 ± 0.0048 mPa·s, the viscosity ([2]; 297.8 K, w2 = 0.6) was 0.571 ± 0.0044 mPa·s and the viscosity ([2]; 297.8 K, w2 = 0.8) was 0.5495 ± 0.0041 mPa·s. For the same molecule, the thermal conductivity ([2]; 297.8 K, w2 = 0.1) was 0.0729 ± 0.0004 W/m/K, the thermal conductivity ([2]; 297.8 K, w2 = 0.2) was 0.0794 ± 0.0004 W/m/K and the thermal conductivity ([2]; 297.8 K, w2 = 0.4) was 0.0948 ± 0.0005 W/m/K. It also gave a thermal conductivity ([2]; 297.8 K, w2 = 0.6) of 0.1108 ± 0.0005 W/m/K, a thermal conductivity ([2]; 297.8 K, w2 = 0.8) of 0.1326 ± 0.0006 W/m/K and a mass density ([2]; 297.8 K, w2 = 0) of 1417 ± 1.4 kg/m3. It also gave a mass density ([2]; 297.8 K, w2 = 0.1) of 1357 ± 1.3 kg/m3, a mass density ([2]; 297.8 K, w2 = 0.2) of 1294.4 ± 1.2 kg/m3 and a mass density ([2]; 297.8 K, w2 = 0.4) of 1058.4 ± 1 kg/m3. For the same molecule, the mass density ([2]; 297.8 K, w2 = 0.6) was 946.5 ± 0.9 kg/m3 and the mass density ([2]; 297.8 K, w2 = 0.8) was 852.6 ± 0.8 kg/m3.
